Source: patent US4252788A, “Dental composition for preventing and inhibiting dental caries” (Toyo Seiyaku Kasei Co., Ltd., priority 1979, dated 1981)

How the values were obtained:
[1] = Ability to inhibit decalcification of the hard tissue (dissolved calcium from human dentin powder in acid solution)
Procedure: The ability to inhibit decalcification of the hard tissue was estimated according to the method described in Nishino. Osaka University Shigaku Zasshi, Vol. 14, page 1 (1969). That is, firstly, a certain amount of human dentin powder was treated with a composition (aqueous solution of a molybdate compound) to be tested for certain minutes and then unbonded excess components were removed by washing with water to obtain a sample powder. Then, the sample powder was treated with an acid solution (decalcification) and the amount of calcium in the solution, which was dissolved in the solution by action of the acid, was determined (sample calcium content). Similarly, untreated dentin powder was added to an acid solution and the amount of calcium in the acid solution was determined (control calcium content). From these values, a inhibition rate of decalcification was calculated as follows: [formula]

[2] = In vivo inhibition of dental caries in rats on cariogenic diet inoculated with Streptococcus mutans; set-up: species or system Male Sprague-Dawley rats; conditions: for Average caries score (± S.E.), Dm (moderate dental caries) / Average caries score (± S.E.), Ds (slight dental caries) / Average caries score (± S.E.), Dx (extensive dental caries) / Inhibition rate of dental caries, Dm (moderate dental caries) / Inhibition rate of dental caries, Ds (slight dental caries) / Inhibition rate of dental caries, Dx (extensive dental caries): 8 weeks
Procedure: Further, the ability of the composition of the present invention to inhibit dental caries was tested in vivo as follows:
45 Male Sprague-Dawley rats (18 days old) were divided into three groups (15 rats/group). These rats were kept with the following cariogenic diet and deionized water during the test period (8 weeks).
0.2 ml of a culture broth, which was prepared by anaerobic cultivation of Streptococcus mutans in brain-heart-infusion broth at 37° C. for 24 hours, was orally administered to each rat once a day for 5 days. On the first, 7th, 14th, 21st, 28th and 35th days of the test period, 10% solution of (NH4)2 MoO2 F4 in deionized water (pH 7.5) was applied twice to mandibular molar of each rat of the first group with a cotton applicator and dried for 5 minutes. Likewise, 2% solution of NaF in deionized water (pH 3.6) was applied to each rat of the second group. As a control, mere deionized water was also applied to each rat of the third group. After 8 weeks, rats were sacrificed and mandibula of each rat was isolated and autoclaved at 121° C. for 5 minutes to remove gingiva and the like attached thereto. After drying, the severity of dental caries of each isolated mandibular molar was estimated with a caries score according to the method described in P. H. Keyes, J. Dent. Res., […], 1088-1099 (1958). In Tables 3 and 4, symbols of the severity of dental caries mean as follows:
Dm: moderate dental caries (dental caries extends to a quarter to three quarters part between enamel and dental pulp); and
Dx: extensive dental caries (dental caries extends to more than three quarters part between enamel and dental pulp).
The inhibition rate of dental caries is calculated as follows: [formula]

mice = test: LD50 in mice; format: in vivo
Description: Further, the dental composition of the present invention is useful from a viewpoint of toxicity since the molybdate compounds used in the present invention have toxicity as low as that of other medicaments commonly used for inhibition of dental caries.

[3] = system: protease (collagenase or trypsin); test: Ability to inhibit digestion of the soft tissue (human decalcified dentin powder in opaque agar plate, clear zone with protease); format: biochemical; conditions: sodium fluoride
Procedure: The ability to inhibit digestion of the soft tissue was estimated according to the method described in Yanagida et al, Shonishikagaku Zasshi, Vol. 9, page 39 (1971). That is, various molybdate compounds (Na2 MoO2 F4, K2 MoO2 F4, (NH4)2 MoO2 F4, Na2 MoO4 or K2 MoO4) were dissolved in deionized water in various concentrations to obtain various compositions to be tested. A certain amount of human decalcified dentin powder was treated with each of the above prepared compositions for certain minutes and then unbonded excess components were removed by dialysis to obtain a sample powder. Then, an opaque agar plate was prepared from a mixture of agar and the sample powder, and a protease (collagenase or trypsin) was added to the plate. The inhibiting ability was estimated by observing whether a clear zone was formed on the plate or not (the clear zone is formed by dissolution of the powder with the enzyme, and the formation thereof means digestion of the soft tissue).

[4] = 0.5 hr decalcification, Mo 1%, pH 3
[5] = 0.5 hr decalcification, Mo 1%, pH 5
[6] = 1 hr decalcification, Mo 1%, pH 3
[7] = 1 hr decalcification, Mo 1%, pH 5
[8] = 3 hrs decalcification, Mo 1%, pH 3
[9] = 3 hrs decalcification, Mo 1%, pH 5
[10] = 5 hrs decalcification, Mo 1%, pH 3
[11] = 5 hrs decalcification, Mo 1%, pH 5
[12] = 1st group, 10% solution, pH 7.5
[13] = 0.5 hr decalcification, Mo 4%, pH 7
[14] = 1 hr decalcification, Mo 4%, pH 7
[15] = 3 hrs decalcification, Mo 4%, pH 7
[16] = 5 hrs decalcification, Mo 4%, pH 7

Compound | Inhibition rate of decalcification [1, 4] | Inhibition rate of decalcification [1, 5] | Inhibition rate of decalcification [1, 6] | Inhibition rate of decalcification [1, 7] | Inhibition rate of decalcification [1, 8] | Inhibition rate of decalcification [1, 9] | Inhibition rate of decalcification [1, 10] | Inhibition rate of decalcification [1, 11] | Inhibition rate of decalcification [1, 13] | Inhibition rate of decalcification [1, 14] | Inhibition rate of decalcification [1, 15] | Inhibition rate of decalcification [1, 16] | other results
[NH4+].[NH4+].[O]=[Mo-2](=[O])([F])([F])([F])[F] [(NH4)2 MoO2 F4, ammonium dioxotetrafluoromolybdate] | 44.43% | 44.43% | 34.60% | 45.45% | 36.47% | 42.39% | 37.27% | 43.12% |  |  |  |  | Average caries score (± S.E.), Dm (moderate dental caries) [2, 12]: 0.7 ± 0.2; Average caries score (± S.E.), Ds (slight dental caries) [2, 12]: 3.9 ± 0.6; Average caries score (± S.E.), Dx (extensive dental caries) [2, 12]: 0.2 ± 0.2; Inhibition rate of dental caries, Dm (moderate dental caries) [2, 12]: 82.9%; Inhibition rate of dental caries, Ds (slight dental caries) [2, 12]: 54.7%; Inhibition rate of dental caries, Dx (extensive dental caries) [2, 12]: 93.8%; Dental caries inhibitory effect (in words) ([2]; Tables 3 and 4): excellent dental caries inhibitory effect; Inhibition rate of dental caries compared with NaF (in words) ([2]; at any severity): extremely superior to that of the composition containing NaF; Inhibition of moderate and extensive dental caries (in words) ([2]; scores of Dm and Dx in Table 3): moderate and extensive dental caries are almost inhibited; LD50 (p.o.) (mice): 124 mg/kg
[K+].[K+].[O]=[Mo](=[O])([O-])[O-] [K2 MoO4, potassium orthomolybdate] |  |  |  |  |  |  |  |  | 36.30% | 38.64% | 43.55% | 36.24% | Inhibition rate of decalcification ([1]; 0.5 hr decalcification, Mo 4%, pH 3): 30.80%; Inhibition rate of decalcification ([1]; 1 hr decalcification, Mo 4%, pH 3): 33.33%; Inhibition rate of decalcification ([1]; 3 hrs decalcification, Mo 4%, pH 3): 35.42%; Inhibition rate of decalcification ([1]; 5 hrs decalcification, Mo 4%, pH 3): 34.52%
O=P([O-])([O-])[O-].[Na+].[Na+].[Na+].[O]=[Mo](=[O])=[O].[O]=[Mo](=[O])=[O].[O]=[Mo](=[O])=[O].[O]=[Mo](=[O])=[O].[O]=[Mo](=[O])=[O].[O]=[Mo](=[O])=[O].[O]=[Mo](=[O])=[O].[O]=[Mo](=[O])=[O].[O]=[Mo](=[O])=[O].[O]=[Mo](=[O])=[O].[O]=[Mo](=[O])=[O].[O]=[Mo](=[O])=[O] [Na3 PO4 . 12MoO3, sodium phosphorus molybdate] | 42.20% | 49.90% | 42.42% | 33.21% | 41.11% | 30.78% | 40.94% | 30.85% |  |  |  |  | 
[Na+].[Na+].[O]=[Mo](=[O])([O-])[O-] [Na2 MoO4, sodium orthomolybdate] |  |  |  |  |  |  |  |  | 44.04% | 42.17% | 33.80% | 35.42% | Inhibition rate of decalcification ([1]; 0.5 hr decalcification, Mo 4%, pH 5): 45.61%; Inhibition rate of decalcification ([1]; 1 hr decalcification, Mo 4%, pH 5): 47.60%; Inhibition rate of decalcification ([1]; 3 hrs decalcification, Mo 4%, pH 5): 49.25%; Inhibition rate of decalcification ([1]; 5 hrs decalcification, Mo 4%, pH 5): 47.82%
O.O=P(O)(O)O.[O]=[Mo](=[O])=[O].[O]=[Mo](=[O])=[O].[O]=[Mo](=[O])=[O].[O]=[Mo](=[O])=[O].[O]=[Mo](=[O])=[O].[O]=[Mo](=[O])=[O].[O]=[Mo](=[O])=[O].[O]=[Mo](=[O])=[O].[O]=[Mo](=[O])=[O].[O]=[Mo](=[O])=[O].[O]=[Mo](=[O])=[O].[O]=[Mo](=[O])=[O] [P2 O5 . 24MoO3, phosphomolybdic acid] | 58.32% |  | 52.02% |  | 54.24% |  | 43.12% |  | 45.22% | 44.82% | 47.39% | 44.61% | 
[Na+].[Na+].[O]=[Mo-2](=[O])([F])([F])([F])[F] [Na2 MoO2 F4, sodium dioxotetrafluoromolybdate] | 63.30% | 62.39% | 64.65% | 50.51% | 66.67% | 49.59% | 66.28% | 49.43% |  |  |  |  | 
[F-].[Na+] [NaF, sodium fluoride, reference compound] |  |  |  |  |  |  |  |  |  |  |  |  | Inhibition of protease digestion (in words) [3]: does not inhibit protease digestion of the soft tissue; Inhibition of protease digestion (in words) ([3]; listed as sodium fluoride): no inhibition of protease digestion; Inhibition rate of decalcification ([1]; 0.5 hr decalcification, reference NaF 2%, pH 5): 43.91%; Inhibition rate of decalcification ([1]; 0.5 hr decalcification, reference NaF 2%, pH 7): 41.94%; Inhibition rate of decalcification ([1]; 1 hr decalcification, reference NaF 2%, pH 5): 40.66%; Inhibition rate of decalcification ([1]; 1 hr decalcification, reference NaF 2%, pH 7): 36.36%; Inhibition rate of decalcification ([1]; 3 hrs decalcification, reference NaF 2%, pH 5): 47.97%; Inhibition rate of decalcification ([1]; 3 hrs decalcification, reference NaF 2%, pH 7): 36.59%; Inhibition rate of decalcification ([1]; 5 hrs decalcification, reference NaF 2%, pH 5): 38.76%; Inhibition rate of decalcification ([1]; 5 hrs decalcification, reference NaF 2%, pH 7): 36.93%; Average caries score (± S.E.), Dm (moderate dental caries) ([2]; 2nd group, 2% solution, pH 3.6): 2.3 ± 0.5; Average caries score (± S.E.), Ds (slight dental caries) ([2]; 2nd group, 2% solution, pH 3.6): 6.9 ± 0.8; Average caries score (± S.E.), Dx (extensive dental caries) ([2]; 2nd group, 2% solution, pH 3.6): 1.1 ± 0.4; Inhibition rate of dental caries, Dm (moderate dental caries) ([2]; 2nd group, 2% solution, pH 3.6): 43.9%; Inhibition rate of dental caries, Ds (slight dental caries) ([2]; 2nd group, 2% solution, pH 3.6): 19.8%; Inhibition rate of dental caries, Dx (extensive dental caries) ([2]; 2nd group, 2% solution, pH 3.6): 65.6%
